Positions count from the first letter of the chain named.
Experiments:
CDK4/D1 = CDK4/D1 (Homo sapiens, UniProt P11802); assay: ADP Glo kinase assay, CDK4/D1; type: biochemical; settings: CDK4D1; for Ki: apparent Ki calculated from Km (ATP) and IC50, read-out: CDK inhibition Ki
Method: Inhibition of FLT3(WT), FLT3(ITD) and FLT3(D835Y) and CDKs were determined using ADP Glo Kinase assays (Promega Corporation, Madison, WI, USA). […] Similarly, kinase reaction for CDK4/D1 and CDK6/D3 was performed with reaction buffer (40 nM Tris base pH 7.5, 20 mM MgCl2, 0.4 mM DTT), 0.1 mg/ml BSA and RB-CTF substrate (retinoblastoma protein1 C-terminal fraction). For CDK9/CyclinT1, the kinase reaction was performed with the standard assay buffer and Kinase Dilution Buffer and RBER-IRStide substrate. Half-maximal inhibition (IC50) values were calculated using a 4-parameter logistic non-linear regression model with Graphpad prism (Version 6.0). Apparent inhibition constants (Ki) values were calculated from Km (ATP) and IC50 values for the respective kinases.

CDK6/D3 = CDK6/D3 (Homo sapiens, UniProt Q00534); assay: ADP Glo kinase assay, CDK6/D3; type: biochemical; settings: CDK6D3; for Ki: apparent Ki calculated from Km (ATP) and IC50, read-out: CDK inhibition Ki
CDK9/CyclinT1 = CDK9/CyclinT1 (Homo sapiens, UniProt P50750); assay: ADP Glo kinase assay, CDK9/CyclinT1; type: biochemical; settings: CDK9T1; apparent Ki calculated from Km (ATP) and IC50; read-out: CDK inhibition Ki
FLT3(WT) = target: T1, FLT3(WT) (Homo sapiens, UniProt P36888); assay: ADP Glo kinase assay, FLT3(WT); type: biochemical; settings: compound at 1 μM, read-out: residual enzymatic activity (%) at 1 μM
T1 sequence (P36888 27-993): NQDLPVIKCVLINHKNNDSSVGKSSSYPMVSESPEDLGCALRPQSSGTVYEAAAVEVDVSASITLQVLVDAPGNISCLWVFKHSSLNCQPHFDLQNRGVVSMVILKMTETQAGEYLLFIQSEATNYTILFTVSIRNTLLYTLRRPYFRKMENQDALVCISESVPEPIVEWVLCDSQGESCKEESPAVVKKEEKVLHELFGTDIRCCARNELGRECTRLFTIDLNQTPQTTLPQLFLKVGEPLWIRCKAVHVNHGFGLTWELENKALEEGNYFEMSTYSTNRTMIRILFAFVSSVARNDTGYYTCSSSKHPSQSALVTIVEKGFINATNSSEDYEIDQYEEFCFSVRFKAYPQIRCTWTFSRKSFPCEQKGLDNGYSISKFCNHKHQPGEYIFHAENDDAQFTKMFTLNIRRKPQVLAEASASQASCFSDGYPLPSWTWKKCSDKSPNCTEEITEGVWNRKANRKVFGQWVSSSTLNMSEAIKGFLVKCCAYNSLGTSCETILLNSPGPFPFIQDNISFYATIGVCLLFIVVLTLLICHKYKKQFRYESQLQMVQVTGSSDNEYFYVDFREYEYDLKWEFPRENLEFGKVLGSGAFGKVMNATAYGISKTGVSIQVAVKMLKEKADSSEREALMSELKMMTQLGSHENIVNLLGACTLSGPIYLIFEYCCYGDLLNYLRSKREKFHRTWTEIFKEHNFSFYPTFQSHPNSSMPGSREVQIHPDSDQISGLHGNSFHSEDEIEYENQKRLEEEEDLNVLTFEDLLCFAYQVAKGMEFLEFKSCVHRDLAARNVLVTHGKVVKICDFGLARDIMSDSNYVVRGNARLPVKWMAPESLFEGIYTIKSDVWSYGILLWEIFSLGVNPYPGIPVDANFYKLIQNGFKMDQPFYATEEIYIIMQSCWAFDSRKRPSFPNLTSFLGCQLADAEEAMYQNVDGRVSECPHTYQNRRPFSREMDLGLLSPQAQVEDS
Method: (§1) Inhibition of FLT3(WT), FLT3(ITD) and FLT3(D835Y) and CDKs were determined using ADP Glo Kinase assays (Promega Corporation, Madison, WI, USA). […] The kinase reactions are run for an optimised time period (FLT3-WT: 120 min, FLT3-ITD: 80 min, FLT3-D835Y: 100 min) at room temperature and then the reaction was stopped by adding 5 μL of ADP Glo reagent. […] Positive and negative controls were performed in 0.5% DMSO in the presence and absence of each FLT3 kinase, respectively. […] Half-maximal inhibition (IC50) values were calculated using a 4-parameter logistic non-linear regression model with Graphpad prism (Version 6.0). Apparent inhibition constants (Ki) values were calculated from Km (ATP) and IC50 values for the respective kinases.

FLT3(ITD) = target: T2, FLT3(ITD) (Homo sapiens, UniProt P36888); assay: ADP Glo kinase assay, FLT3(ITD); type: biochemical; settings: apparent Ki calculated from Km (ATP) and IC50, read-out: FLT3 inhibition Ki
T2 sequence (P36888 1-993): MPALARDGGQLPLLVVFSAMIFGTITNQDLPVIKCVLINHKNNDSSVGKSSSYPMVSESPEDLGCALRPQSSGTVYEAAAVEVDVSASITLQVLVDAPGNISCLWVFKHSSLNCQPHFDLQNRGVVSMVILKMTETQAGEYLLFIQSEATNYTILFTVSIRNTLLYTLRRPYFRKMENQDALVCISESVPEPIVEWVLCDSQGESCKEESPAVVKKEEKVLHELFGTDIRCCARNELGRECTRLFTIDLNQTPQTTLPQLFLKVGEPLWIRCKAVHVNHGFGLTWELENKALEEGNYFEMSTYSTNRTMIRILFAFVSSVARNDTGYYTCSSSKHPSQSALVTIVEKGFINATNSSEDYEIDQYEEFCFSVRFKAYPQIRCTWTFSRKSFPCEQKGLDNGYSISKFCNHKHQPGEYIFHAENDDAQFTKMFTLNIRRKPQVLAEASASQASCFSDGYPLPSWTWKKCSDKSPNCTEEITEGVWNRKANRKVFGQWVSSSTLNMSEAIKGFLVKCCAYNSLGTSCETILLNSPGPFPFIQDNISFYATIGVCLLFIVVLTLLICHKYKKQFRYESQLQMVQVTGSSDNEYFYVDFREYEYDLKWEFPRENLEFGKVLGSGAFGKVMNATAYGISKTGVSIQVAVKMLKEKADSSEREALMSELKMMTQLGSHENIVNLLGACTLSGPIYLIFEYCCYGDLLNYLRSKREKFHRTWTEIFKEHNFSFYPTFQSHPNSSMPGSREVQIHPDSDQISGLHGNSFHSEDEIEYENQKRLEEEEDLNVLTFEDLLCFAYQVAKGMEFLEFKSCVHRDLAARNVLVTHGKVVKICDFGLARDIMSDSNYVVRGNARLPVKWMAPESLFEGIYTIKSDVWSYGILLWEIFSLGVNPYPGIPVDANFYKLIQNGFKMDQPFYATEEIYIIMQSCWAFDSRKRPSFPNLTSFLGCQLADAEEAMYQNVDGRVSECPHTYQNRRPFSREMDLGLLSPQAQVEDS
Method: as §1

FLT3(D835Y) = target: T3, FLT3(D835Y) (Homo sapiens, UniProt P36888, D835Y); assay: ADP Glo kinase assay, FLT3(D835Y); type: biochemical; settings: apparent Ki calculated from Km (ATP) and IC50, read-out: FLT3 inhibition Ki
T3 sequence (P36888 27-993 D835Y): T1 sequence (P36888 27-993) with D809Y
Method: as §1

MV-4-11 = assay: Proliferation assay (resazurin/MTT), MV-4-11; type: cell-based; settings: Homo sapiens, MV4-11, read-out: 72 h Growth inhibition GI50, MV-4-11 cells
U937 = assay: Proliferation assay (resazurin/MTT), U937; type: cell-based; settings: Homo sapiens, U-937, read-out: 72 h Growth inhibition GI50, U937 cells
CDK1B [1] = target: T4, CDK1B (Homo sapiens, UniProt P06493); assay: biochemical
CDK7HMAT1 [2] = target: T5, CDK7HMAT1 (Homo sapiens, UniProt P50613); assay: biochemical;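 note: kinase activity measured with an ADP-Glo luminescent kinase assay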
Method: as §1

CDK7HMAT1 [3] = target: T5, CDK7HMAT1; settings: 10 µM
Method: as §1

CDK2E1 [4] = target: T6, CDK2E1 (Homo sapiens, UniProt P24941); assay: biochemical
CDK2E1 [5] = target: T6, CDK2E1; settings: 1 µM
CDK1B [6] = target: T4, CDK1B; settings: 1 µM
[7] = compound at 1 μM (values marked *), read-out: residual enzymatic activity (%) at 1 μM*

T4 sequence (P06493 whole entry): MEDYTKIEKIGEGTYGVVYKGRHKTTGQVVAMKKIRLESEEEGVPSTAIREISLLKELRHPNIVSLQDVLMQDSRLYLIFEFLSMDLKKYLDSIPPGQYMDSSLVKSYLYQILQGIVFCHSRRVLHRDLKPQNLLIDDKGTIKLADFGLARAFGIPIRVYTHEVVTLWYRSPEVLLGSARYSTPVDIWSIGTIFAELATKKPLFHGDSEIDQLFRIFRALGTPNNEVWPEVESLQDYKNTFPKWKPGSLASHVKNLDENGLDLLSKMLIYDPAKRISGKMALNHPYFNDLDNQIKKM
T4 sequence (P14635 whole entry partner): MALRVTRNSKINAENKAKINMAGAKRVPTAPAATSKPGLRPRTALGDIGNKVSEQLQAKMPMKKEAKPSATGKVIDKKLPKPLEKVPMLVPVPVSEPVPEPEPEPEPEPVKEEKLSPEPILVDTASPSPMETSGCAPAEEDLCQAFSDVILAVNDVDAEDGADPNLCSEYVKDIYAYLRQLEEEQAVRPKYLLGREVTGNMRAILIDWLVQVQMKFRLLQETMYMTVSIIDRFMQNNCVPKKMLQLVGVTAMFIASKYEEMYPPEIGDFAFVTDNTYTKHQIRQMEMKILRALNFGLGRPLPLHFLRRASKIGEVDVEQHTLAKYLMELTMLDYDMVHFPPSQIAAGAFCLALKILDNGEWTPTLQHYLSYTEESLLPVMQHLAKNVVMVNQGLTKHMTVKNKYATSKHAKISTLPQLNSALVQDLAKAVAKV
T5 sequence (P50613 whole entry): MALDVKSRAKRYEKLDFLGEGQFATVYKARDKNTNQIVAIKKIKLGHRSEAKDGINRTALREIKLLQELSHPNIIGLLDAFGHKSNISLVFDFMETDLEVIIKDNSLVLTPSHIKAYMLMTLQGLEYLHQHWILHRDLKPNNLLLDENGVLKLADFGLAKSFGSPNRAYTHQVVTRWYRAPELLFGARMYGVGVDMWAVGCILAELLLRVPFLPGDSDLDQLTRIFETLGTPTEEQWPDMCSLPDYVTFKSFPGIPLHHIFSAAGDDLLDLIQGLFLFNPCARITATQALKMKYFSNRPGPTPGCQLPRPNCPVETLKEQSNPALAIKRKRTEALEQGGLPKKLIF
T5 sequence (P51946 whole entry partner): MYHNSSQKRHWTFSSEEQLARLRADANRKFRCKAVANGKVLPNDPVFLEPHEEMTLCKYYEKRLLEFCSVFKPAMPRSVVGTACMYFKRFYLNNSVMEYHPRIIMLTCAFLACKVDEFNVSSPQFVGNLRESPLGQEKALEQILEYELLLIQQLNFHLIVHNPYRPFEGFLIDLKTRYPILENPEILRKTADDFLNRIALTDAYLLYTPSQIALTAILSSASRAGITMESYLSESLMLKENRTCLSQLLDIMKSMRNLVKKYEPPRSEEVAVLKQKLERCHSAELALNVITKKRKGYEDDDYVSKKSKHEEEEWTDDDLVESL
T5 sequence (P51948 whole entry partner): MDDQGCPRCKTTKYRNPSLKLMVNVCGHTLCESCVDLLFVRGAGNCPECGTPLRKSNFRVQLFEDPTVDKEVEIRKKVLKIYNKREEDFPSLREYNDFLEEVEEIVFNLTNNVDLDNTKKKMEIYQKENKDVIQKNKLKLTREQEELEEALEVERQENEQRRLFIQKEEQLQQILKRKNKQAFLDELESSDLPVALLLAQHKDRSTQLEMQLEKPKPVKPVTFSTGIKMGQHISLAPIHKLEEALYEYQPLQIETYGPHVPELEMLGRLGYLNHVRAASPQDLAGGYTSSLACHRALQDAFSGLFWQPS
Chain of CDK9/CyclinT1 (P50750 whole entry, species assumed): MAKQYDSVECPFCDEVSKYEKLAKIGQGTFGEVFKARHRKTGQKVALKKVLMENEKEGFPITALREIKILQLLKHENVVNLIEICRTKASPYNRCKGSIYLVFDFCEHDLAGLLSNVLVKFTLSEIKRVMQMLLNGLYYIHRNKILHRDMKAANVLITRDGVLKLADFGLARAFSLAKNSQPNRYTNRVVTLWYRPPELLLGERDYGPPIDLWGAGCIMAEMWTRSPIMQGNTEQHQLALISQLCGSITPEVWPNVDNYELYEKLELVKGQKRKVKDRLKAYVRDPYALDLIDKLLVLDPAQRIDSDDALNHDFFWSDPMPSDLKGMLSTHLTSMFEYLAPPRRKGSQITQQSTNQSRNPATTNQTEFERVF
Chain of CDK9/CyclinT1 (O60563 whole entry partner, species assumed): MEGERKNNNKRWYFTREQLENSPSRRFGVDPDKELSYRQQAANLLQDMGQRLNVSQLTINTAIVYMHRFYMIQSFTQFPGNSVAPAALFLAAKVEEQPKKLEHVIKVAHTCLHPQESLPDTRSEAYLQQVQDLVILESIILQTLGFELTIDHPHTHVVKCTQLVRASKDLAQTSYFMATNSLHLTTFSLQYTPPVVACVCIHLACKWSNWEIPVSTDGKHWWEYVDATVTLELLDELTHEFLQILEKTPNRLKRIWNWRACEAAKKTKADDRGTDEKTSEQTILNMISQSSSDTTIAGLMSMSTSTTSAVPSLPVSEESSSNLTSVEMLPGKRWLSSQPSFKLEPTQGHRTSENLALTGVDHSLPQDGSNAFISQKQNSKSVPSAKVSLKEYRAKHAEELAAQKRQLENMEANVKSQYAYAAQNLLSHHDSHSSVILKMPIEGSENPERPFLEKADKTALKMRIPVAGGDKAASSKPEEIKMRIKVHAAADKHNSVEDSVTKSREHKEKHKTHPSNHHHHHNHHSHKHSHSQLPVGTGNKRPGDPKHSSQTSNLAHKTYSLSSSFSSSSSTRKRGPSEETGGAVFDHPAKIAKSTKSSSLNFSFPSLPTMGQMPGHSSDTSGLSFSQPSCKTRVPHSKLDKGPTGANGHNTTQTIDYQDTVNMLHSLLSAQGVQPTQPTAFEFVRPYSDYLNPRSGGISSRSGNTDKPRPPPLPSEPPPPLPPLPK
Chain of CDK4/D1 (P11802 whole entry, species assumed): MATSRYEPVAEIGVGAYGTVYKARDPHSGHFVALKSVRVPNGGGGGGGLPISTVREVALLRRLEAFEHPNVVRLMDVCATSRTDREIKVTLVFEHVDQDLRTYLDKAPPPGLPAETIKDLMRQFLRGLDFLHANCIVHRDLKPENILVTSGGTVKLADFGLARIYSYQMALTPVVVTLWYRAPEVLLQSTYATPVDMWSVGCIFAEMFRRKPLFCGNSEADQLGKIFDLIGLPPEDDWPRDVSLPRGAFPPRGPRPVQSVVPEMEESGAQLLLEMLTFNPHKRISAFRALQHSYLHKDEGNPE
Chain of CDK4/D1 (P24385 whole entry partner, species assumed): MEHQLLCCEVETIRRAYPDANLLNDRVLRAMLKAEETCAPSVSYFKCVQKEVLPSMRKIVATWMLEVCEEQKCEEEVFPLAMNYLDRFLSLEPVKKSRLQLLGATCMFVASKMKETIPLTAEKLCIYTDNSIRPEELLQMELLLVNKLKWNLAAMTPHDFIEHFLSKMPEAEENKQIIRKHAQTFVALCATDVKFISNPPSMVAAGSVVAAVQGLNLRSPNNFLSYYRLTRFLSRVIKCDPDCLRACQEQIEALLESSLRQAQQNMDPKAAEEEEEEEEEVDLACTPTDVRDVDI
Chain of CDK6/D3 (Q00534 whole entry, species assumed): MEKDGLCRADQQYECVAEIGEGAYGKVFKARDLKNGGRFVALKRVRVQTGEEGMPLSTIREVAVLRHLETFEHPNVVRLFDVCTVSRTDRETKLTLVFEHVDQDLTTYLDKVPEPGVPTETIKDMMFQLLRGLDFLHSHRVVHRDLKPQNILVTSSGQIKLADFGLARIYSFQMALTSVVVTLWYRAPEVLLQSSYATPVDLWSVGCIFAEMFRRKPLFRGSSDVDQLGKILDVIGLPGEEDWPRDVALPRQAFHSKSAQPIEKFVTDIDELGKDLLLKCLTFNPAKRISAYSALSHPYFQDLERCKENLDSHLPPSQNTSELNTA
Chain of CDK6/D3 (P30281 whole entry partner, species assumed): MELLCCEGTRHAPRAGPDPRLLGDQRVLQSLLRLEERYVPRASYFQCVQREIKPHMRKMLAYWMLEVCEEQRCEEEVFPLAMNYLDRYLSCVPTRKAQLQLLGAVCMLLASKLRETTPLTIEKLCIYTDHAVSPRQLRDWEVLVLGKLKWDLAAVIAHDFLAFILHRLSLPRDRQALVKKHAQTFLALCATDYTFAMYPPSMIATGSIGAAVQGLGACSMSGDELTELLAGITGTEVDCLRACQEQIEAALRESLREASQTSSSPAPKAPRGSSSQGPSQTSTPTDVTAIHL

Row | Ki (CDK4/D1) [nM] | Ki (CDK6/D3) [nM] | Ki (CDK9/CyclinT1) [nM] | remaining activity at 1 µM (FLT3(WT)) [%] | Ki (FLT3(ITD)) [nM] | Ki (FLT3(D835Y)) [nM] | GI50 (MV-4-11) [nM] | GI50 (U937) [nM] | Ki (CDK1B [1]) [nM] | Ki (CDK7HMAT1 [2]) [nM] | activity (CDK7HMAT1 [3]) [%] | Ki (CDK2E1 [4]) [nM] | remaining activity at 10 µM (CDK6/D3; compound at 10 μM, read-out: residual enzymatic activity (%) at 10 μM) [%] | activity (CDK2E1 [5]) [%] | remaining activity at 1 µM (CDK4/D1; [7]) [%] | remaining activity at 1 µM (CDK6/D3; [7]) [%] | activity (CDK1B [6]) [%] | Structure (SMILES)
1 | 155 | 1050 | 85 | 33 | 235 | 49 | 35 | 504 | 1990 | 1700 | – | – | – | – | – | – | – | CN1CCN(c2ccc(Nc3nccc(-c4cnc5ccccn45)n3)nc2)CC1 [Cmpd 2, 4-(Imidazo[1,2-a]pyridin-3-yl)-N-(5-(4-methylpiperazin-1-yl)pyridin-2-yl)pyrimidin-2-amine]
2 | 218 | 370 | 41 | 34 | 15 | 17 | 124 | 512 | 148 | – | 43 | 84 | – | – | – | – | – | c1ccc(Nc2nccc(-c3cnc4ccccn34)n2)nc1 [Cmpd 7, 4-(Imidazo[1,2-a]pyridin-3-yl)-N-(pyridin-2-yl)pyrimidin-2-amine]
3 | 340 | – | 427 | – | – | – | 2 | 690 | > 500 | 148 | – | – | 76 | 52 | – | – | – | CC(=O)N1CCN(c2ccc(Nc3nccc(-c4cnc5ccc(-c6cccs6)cn45)n3)nc2)CC1 [Cmpd 17, 1-(4-(6-((4-(6-(Thiophen-2-yl)imidazo[1,2-a]pyridin-3-yl)pyrimidin-2-yl)amino)pyridin-3-yl)piperazin-1-yl)ethan-1-one]
4 | – | – | 308 | – | – | – | 5 | 19100 | – | – | – | 301 | – | – | 37 | 38 | 50 | CC(=O)N1CCN(c2ccc(Nc3ncc(F)c(-c4cnc5ccc(C)cn45)n3)nc2)CC1 [Cmpd 31, 1-(4-(6-((5-Fluoro-4-(6-methylimidazo[1,2-a]pyridin-3-yl)pyrimidin-2-yl)amino)pyridin-3-yl)piperazin-1-yl)ethan-1-one]
5 | – | – | – | – | – | – | 72 | 350 | – | – | – | 116 | – | – | – | – | – | Fc1ccc(Nc2nccc(-c3cnc4ccccn34)n2)nc1 [Cmpd 51, N-(5-Fluoropyridin-2-yl)-4-(imidazo[1,2-a]pyridin-3-yl)pyrimidin-2-amine]
6 | – | – | 41 | – | 11 | – | 17 | 18 | – | – | – | 197 | – | – | – | – | – | CN1CCN(c2ccc(Nc3nccc(-c4cnc5ccc(-c6cn[nH]c6)cn45)n3)nc2)CC1 [Cmpd 67, 4-(6-(1H-Pyrazol-4-yl)imidazo[1,2-a]pyridin-3-yl)-N-(5-(4-methylpiperazin-1-yl)pyridin-2-yl)pyrimidin-2-amine]

Source: patent publication US12398132B2, “Derivatives of 4-(imidazo[1,2-a]pyridin-3-yl)-n-(pyridinyl)pyrimidin-2-amine as therapeutic agents” (AUCENTRA THERAPEUTICS PTY LTD, priority 2019, dated 2025)
